The nature of the data set: activity coefficient (dimensionless); of the first substance listed, at infinite dilution; xn = mol fraction of the nth substance listed. The note with it: Liquid, Chromatography, x1 = 0.

Numbers after ± are expanded uncertainties.

With `C#CCCCCC` [1-heptyne] + Cn1cc[n+](COCCCOC[n+]2ccn(C)c2)c1.O=S(=O)([N-]S(=O)(=O)C(F)(F)F)C(F)(F)F.O=S(=O)([N-]S(=O)(=O)C(F)(F)F)C(F)(F)F, the activity coefficient is 5.9 ± 0.4 (323.15 K), 6.09 ± 0.42 (333.15 K) and 5.71 ± 0.39 (343.15 K).
Take `C#CCCCCC` [1-heptyne] + N#C[N-]C#N.N#C[N-]C#N.c1ccc(Cn2cc[n+](COCCCOC[n+]3ccn(Cc4ccccc4)c3)c2)cc1: the activity coefficient is, setting by setting: (323.15 K) 19.1 ± 1.3; (333.15 K) 17.2 ± 1.2; (343.15 K) 15.9 ± 1.1.
With `C#CCCCC` [1-hexyne] + CCCCCCCCn1cc[n+](COCCC)c1C.N#C[N-]C#N, the activity coefficient is, setting by setting: (323.15 K) 1.73 ± 0.12; (333.15 K) 2.14 ± 0.15; (343.15 K) 2.01 ± 0.14.
As for `C#CCCCC` [1-hexyne] + CCCCCCCCn1cc[n+](COCCC)c1C.O=S(=O)([N-]S(=O)(=O)C(F)(F)F)C(F)(F)F, the activity coefficient (323.15 K) amounted to 1.39 ± 0.09, the activity coefficient (333.15 K) was found to be 1.36 ± 0.09 and the activity coefficient (343.15 K) worked out at 1.34 ± 0.09.
In the same order, the values of `C#CCCCC` [1-hexyne] + CCCCCCCCn1cc[n+](COCCCOC[n+]2ccn(CCCCCCCC)c2C)c1C.N#C[N-]C#N.N#C[N-]C#N are 1.72 ± 0.12, 1.68 ± 0.11 and 1.63 ± 0.11.
Regarding `C#CCCCC` [1-hexyne] + CCCCCCCCn1cc[n+](COCCCOC[n+]2ccn(CCCCCCCC)c2C)c1C.O=S(=O)([N-]S(=O)(=O)C(F)(F)F)C(F)(F)F.O=S(=O)([N-]S(=O)(=O)C(F)(F)F)C(F)(F)F, the activity coefficient (323.15 K) is 1.13 ± 0.07, the activity coefficient (333.15 K) was 1.13 ± 0.07 and the activity coefficient (343.15 K) amounted to 1.14 ± 0.07.
As for `C#CCCCC` [1-hexyne] + CCCOC[n+]1ccc(N(C)C)cc1.O=S(=O)([N-]S(=O)(=O)C(F)(F)F)C(F)(F)F, the activity coefficient is, setting by setting: (323.15 K) 2.51 ± 0.17; (333.15 K) 2.5 ± 0.17; (343.15 K) 2.5 ± 0.17.
With `C#CCCCC` [1-hexyne] + CCCOC[n+]1ccn(C)c1.F[B-](F)(F)F, the activity coefficient (323.15 K) turned out to be 10.3 ± 0.7, the activity coefficient (333.15 K) came to 10.1 ± 0.69 and the activity coefficient (343.15 K) came out at 9.44 ± 0.64.
Turning to `C#CCCCC` [1-hexyne] + CCCOC[n+]1ccn(C)c1.N#C[N-]C#N, the activity coefficient came out at 6.98 ± 0.48 (323.15 K) and 7.6 ± 0.52 (333.15 K).
Turning to `C#CCCCC` [1-hexyne] + CCCOC[n+]1ccn(C)c1.O=S(=O)([N-]S(=O)(=O)C(F)(F)F)C(F)(F)F, the activity coefficient is, setting by setting: (323.15 K) 3.39 ± 0.23; (333.15 K) 3.4 ± 0.23; (343.15 K) 3.4 ± 0.23.
Turning to `C#CCCCC` [1-hexyne] + CCCOC[n+]1ccn(Cc2ccccc2)c1.F[B-](F)(F)F, the activity coefficient was 5.61 ± 0.38 (323.15 K), 5.52 ± 0.38 (333.15 K) and 5.42 ± 0.37 (343.15 K).
With `C#CCCCC` [1-hexyne] + CCCOC[n+]1ccn(Cc2ccccc2)c1.N#C[N-]C#N, the activity coefficient runs as follows: (323.15 K) 4.41 ± 0.3; (333.15 K) 4.29 ± 0.29.
With `C#CCCCC` [1-hexyne] + CCCOC[n+]1ccn(Cc2ccccc2)c1.O=S(=O)([N-]S(=O)(=O)C(F)(F)F)C(F)(F)F, the activity coefficient by setting is: (323.15 K) 2.14 ± 0.15; (333.15 K) 2.35 ± 0.16.
With `C#CCCCC` [1-hexyne] + CN(C)c1cc[n+](COCCCOC[n+]2ccc(N(C)C)cc2)cc1.O=S(=O)([N-]S(=O)(=O)C(F)(F)F)C(F)(F)F.O=S(=O)([N-]S(=O)(=O)C(F)(F)F)C(F)(F)F, the activity coefficient is, setting by setting: (323.15 K) 3 ± 0.2; (333.15 K) 2.96 ± 0.2; (343.15 K) 2.92 ± 0.2.
With `C#CCCCC` [1-hexyne] + Cn1cc[n+](COCCCOC[n+]2ccn(C)c2)c1.N#C[N-]C#N.N#C[N-]C#N, the activity coefficient is, setting by setting: (323.15 K) 15.8 ± 1.1; (333.15 K) 15.2 ± 1; (343.15 K) 14.6 ± 1.
Consider `C#CCCCC` [1-hexyne] + Cn1cc[n+](COCCCOC[n+]2ccn(C)c2)c1.O=S(=O)([N-]S(=O)(=O)C(F)(F)F)C(F)(F)F.O=S(=O)([N-]S(=O)(=O)C(F)(F)F)C(F)(F)F, for which the activity coefficient (323.15 K) was determined as 3.81 ± 0.26, the activity coefficient (333.15 K) is 3.68 ± 0.25 and the activity coefficient (343.15 K) was found to be 3.4 ± 0.23.
For the molecule `C#CCCCC` [1-hexyne] + N#C[N-]C#N.N#C[N-]C#N.c1ccc(Cn2cc[n+](COCCCOC[n+]3ccn(Cc4ccccc4)c3)c2)cc1, the activity coefficient was found to be 14.1 ± 0.96 (323.15 K) and 11.7 ± 0.8 (333.15 K).
Take `CCC[N+](=O)[O-]` [1-nitropropane] + CCCCCCCCn1cc[n+](COCCC)c1C.N#C[N-]C#N: the activity coefficient worked out at 0.76 ± 0.05 (323.15 K), 0.75 ± 0.05 (333.15 K) and 0.75 ± 0.05 (343.15 K).
Turning to `CCC[N+](=O)[O-]` [1-nitropropane] + CCCCCCCCn1cc[n+](COCCC)c1C.O=S(=O)([N-]S(=O)(=O)C(F)(F)F)C(F)(F)F, the activity coefficient is 0.54 ± 0.04 (323.15 K), 0.53 ± 0.04 (333.15 K) and 0.53 ± 0.04 (343.15 K).
For the molecule `CCC[N+](=O)[O-]` [1-nitropropane] + CCCCCCCCn1cc[n+](COCCCOC[n+]2ccn(CCCCCCCC)c2C)c1C.N#C[N-]C#N.N#C[N-]C#N, the activity coefficient reads like this: (323.15 K) 0.59 ± 0.04; (333.15 K) 0.58 ± 0.04; (343.15 K) 0.58 ± 0.04.
With `CCC[N+](=O)[O-]` [1-nitropropane] + CCCCCCCCn1cc[n+](COCCCOC[n+]2ccn(CCCCCCCC)c2C)c1C.O=S(=O)([N-]S(=O)(=O)C(F)(F)F)C(F)(F)F.O=S(=O)([N-]S(=O)(=O)C(F)(F)F)C(F)(F)F, the activity coefficient reads like this: (323.15 K) 0.34 ± 0.03; (333.15 K) 0.33 ± 0.03; (343.15 K) 0.32 ± 0.03.
As to `CCC[N+](=O)[O-]` [1-nitropropane] + CCCOC[n+]1ccc(N(C)C)cc1.O=S(=O)([N-]S(=O)(=O)C(F)(F)F)C(F)(F)F, the activity coefficient (323.15 K) is 0.68 ± 0.05, the activity coefficient (333.15 K) is 0.69 ± 0.05 and the activity coefficient (343.15 K) turned out to be 0.69 ± 0.05.
Take `CCC[N+](=O)[O-]` [1-nitropropane] + CCCOC[n+]1ccn(C)c1.F[B-](F)(F)F: the activity coefficient reads like this: (323.15 K) 1.78 ± 0.12; (333.15 K) 1.78 ± 0.12; (343.15 K) 1.78 ± 0.12.
`CCC[N+](=O)[O-]` [1-nitropropane] + CCCOC[n+]1ccn(C)c1.N#C[N-]C#N: the activity coefficient (323.15 K) worked out at 1.36 ± 0.09, the activity coefficient (333.15 K) is 1.37 ± 0.09 and the activity coefficient (343.15 K) was determined as 1.39 ± 0.09.
Take `CCC[N+](=O)[O-]` [1-nitropropane] + CCCOC[n+]1ccn(C)c1.O=S(=O)([N-]S(=O)(=O)C(F)(F)F)C(F)(F)F: the activity coefficient is, setting by setting: (323.15 K) 0.74 ± 0.05; (333.15 K) 0.72 ± 0.05; (343.15 K) 0.72 ± 0.05.
With `CCC[N+](=O)[O-]` [1-nitropropane] + CCCOC[n+]1ccn(Cc2ccccc2)c1.F[B-](F)(F)F, the activity coefficient runs as follows: (323.15 K) 1.16 ± 0.07; (333.15 K) 1.12 ± 0.07; (343.15 K) 1.14 ± 0.07.
For the molecule `CCC[N+](=O)[O-]` [1-nitropropane] + CCCOC[n+]1ccn(Cc2ccccc2)c1.N#C[N-]C#N, the activity coefficient by setting is: (323.15 K) 1.04 ± 0.07; (333.15 K) 1.06 ± 0.07; (343.15 K) 1.06 ± 0.07.
Turning to `CCC[N+](=O)[O-]` [1-nitropropane] + CCCOC[n+]1ccn(Cc2ccccc2)c1.O=S(=O)([N-]S(=O)(=O)C(F)(F)F)C(F)(F)F, the activity coefficient is, setting by setting: (323.15 K) 0.53 ± 0.04; (333.15 K) 0.46 ± 0.04; (343.15 K) 0.47 ± 0.04.
Take `CCC[N+](=O)[O-]` [1-nitropropane] + CN(C)c1cc[n+](COCCCOC[n+]2ccc(N(C)C)cc2)cc1.O=S(=O)([N-]S(=O)(=O)C(F)(F)F)C(F)(F)F.O=S(=O)([N-]S(=O)(=O)C(F)(F)F)C(F)(F)F: the activity coefficient worked out at 0.57 ± 0.04 (323.15 K), 0.59 ± 0.04 (333.15 K) and 0.56 ± 0.04 (343.15 K).
`CCC[N+](=O)[O-]` [1-nitropropane] + Cn1cc[n+](COCCCOC[n+]2ccn(C)c2)c1.O=S(=O)([N-]S(=O)(=O)C(F)(F)F)C(F)(F)F.O=S(=O)([N-]S(=O)(=O)C(F)(F)F)C(F)(F)F: the activity coefficient runs as follows: (323.15 K) 0.54 ± 0.04; (333.15 K) 0.54 ± 0.04; (343.15 K) 0.53 ± 0.04.
In the case of `CCC[N+](=O)[O-]` [1-nitropropane] + N#C[N-]C#N.N#C[N-]C#N.c1ccc(Cn2cc[n+](COCCCOC[n+]3ccn(Cc4ccccc4)c3)c2)cc1, the activity coefficient is 1.76 ± 0.12 (323.15 K), 1.73 ± 0.12 (333.15 K) and 1.75 ± 0.12 (343.15 K).
In the same order, the values of `CC(C)CC(C)(C)C` [2,2,4-trimethylpentane] + CCCCCCCCn1cc[n+](COCCCOC[n+]2ccn(CCCCCCCC)c2C)c1C.N#C[N-]C#N.N#C[N-]C#N are 11.4 ± 0.78, 10.5 ± 0.72 and 9.74 ± 0.66.
For the molecule `CC(C)CC(C)(C)C` [2,2,4-trimethylpentane] + CN(C)c1cc[n+](COCCCOC[n+]2ccc(N(C)C)cc2)cc1.O=S(=O)([N-]S(=O)(=O)C(F)(F)F)C(F)(F)F.O=S(=O)([N-]S(=O)(=O)C(F)(F)F)C(F)(F)F, the activity coefficient came out at 31.7 ± 2.2 (323.15 K), 25.2 ± 1.7 (333.15 K) and 25.4 ± 1.7 (343.15 K).
In the same order, the values of `CC(C)CO` [2-methyl-1-propanol] + CCCCCCCCn1cc[n+](COCCC)c1C.O=S(=O)([N-]S(=O)(=O)C(F)(F)F)C(F)(F)F are 1.21 ± 0.08, 1.09 ± 0.07 and 1.03 ± 0.06.
On to `CC(C)CO` [2-methyl-1-propanol] + CCCCCCCCn1cc[n+](COCCCOC[n+]2ccn(CCCCCCCC)c2C)c1C.N#C[N-]C#N.N#C[N-]C#N, for which the activity coefficient runs as follows: (323.15 K) 0.36 ± 0.03; (333.15 K) 0.36 ± 0.03; (343.15 K) 0.35 ± 0.03.
Consider `CC(C)CO` [2-methyl-1-propanol] + CCCCCCCCn1cc[n+](COCCCOC[n+]2ccn(CCCCCCCC)c2C)c1C.O=S(=O)([N-]S(=O)(=O)C(F)(F)F)C(F)(F)F.O=S(=O)([N-]S(=O)(=O)C(F)(F)F)C(F)(F)F, for which the activity coefficient reads like this: (323.15 K) 0.8 ± 0.05; (333.15 K) 0.72 ± 0.05; (343.15 K) 0.67 ± 0.05.

The record behind these values is the NIST ThermoML archive (doi:10.1016/j.fluid.2014.11.020).
